Data published in the NIST ThermoML archive (doi:10.1021/je301132p).

Assay: mn = molality of the nth substance listed, in mol/kg
Conditions: Liquid, Vibrating tube method

[Cl-].[Cl-].[Sr+2] [strontium chloride] + O
mass density [kg/m3]
Conditions	298.11 K	323.13 K	348.12 K	373.12 K	398.08 K	423.07 K	448.03 K	473.02 K
1100 kPa, m1 = 1.022	1130.15	1118.47	1104.6	1088.34	1069.78	1049.35	1026.97	–
1100 kPa, m1 = 2.024	1247.6	1234.1	1219.34	1202.92	1184.72	1165.03	1143.84	–
1100 kPa, m1 = 3.031	1354.92	1340.16	1324.81	1308.43	1290.36	1271.02	1250.51	–
10100 kPa, m1 = 1.022	1133.6	1121.92	1108.06	1092.02	1073.81	1053.57	1031.7	1007.66
10100 kPa, m1 = 2.024	1250.68	1237.28	1222.48	1206.28	1188.28	1168.83	1147.95	1125.38
10100 kPa, m1 = 3.031	1357.74	1343.03	1327.78	1311.58	1293.65	1274.46	1254.24	1232.68
20100 kPa, m1 = 1.022	1137.52	1125.75	1111.92	1095.98	1078.08	1058.3	1037.05	1013.5
20100 kPa, m1 = 2.024	1254.27	1240.69	1226.06	1209.96	1192.23	1173.04	1152.74	1130.5
20100 kPa, m1 = 3.031	1360.96	1346.27	1331.14	1315.04	1297.24	1278.29	1258.62	1237.28
30100 kPa, m1 = 1.022	1141.28	1129.44	1115.71	1100.03	1082.31	1062.95	1042	1019.02
30100 kPa, m1 = 2.024	1257.65	1244.1	1229.57	1213.53	1196.08	1177.32	1157.21	1135.33
30100 kPa, m1 = 3.031	1364.07	1349.35	1334.39	1318.4	1300.87	1282.22	1262.72	1241.64
40100 kPa, m1 = 1.022	1145.04	1133.12	1119.42	1103.81	1086.33	1067.24	1046.83	1024.58
40100 kPa, m1 = 2.024	1260.99	1247.56	1233.02	1217.2	1199.73	1181.23	1161.52	1140.28
40100 kPa, m1 = 3.031	1367.19	1352.55	1337.62	1321.75	1304.29	1285.9	1266.77	1246.19
50100 kPa, m1 = 1.022	1148.76	1136.68	1123.04	1107.65	1090.29	1071.7	1051.49	1029.72
50100 kPa, m1 = 2.024	1264.44	1250.9	1236.41	1220.6	1203.4	1185.23	1165.8	1144.86
50100 kPa, m1 = 3.031	1370.34	1355.63	1340.81	1324.88	1307.65	1289.64	1270.62	1250.44
60100 kPa, m1 = 1.022	1152.26	1140.25	1126.67	1111.38	1094.27	1075.85	1056.12	1034.76
60100 kPa, m1 = 2.024	1267.55	1254.09	1239.66	1224.07	1207.02	1189.05	1169.91	1149.32
60100 kPa, m1 = 3.031	1373.16	1358.71	1343.89	1328.14	1311.1	1293.25	1274.47	1254.53
68600 kPa, m1 = 1.022	1155.3	1143.18	1129.67	1114.46	1097.55	1079.3	1059.85	1038.86
68600 kPa, m1 = 2.024	1270.33	1256.76	1242.52	1226.94	1210.03	1192.19	1173.33	1153.07
68600 kPa, m1 = 3.031	1375.7	1361.18	1346.54	1330.91	1313.86	1296.08	1277.59	1257.93
